Where “and” joins values, the source holds several entries; their conditions need not be identical. Equal entries are not always repeated.
What was measured:
Cytochrome P450 2A6 = biological target: T1, Cytochrome P450 2A6 (Homo sapiens, UniProt P11509); experiment: Inhibition Assay; settings: pH 7.6; 37 °C
T1 sequence (P11509 whole entry): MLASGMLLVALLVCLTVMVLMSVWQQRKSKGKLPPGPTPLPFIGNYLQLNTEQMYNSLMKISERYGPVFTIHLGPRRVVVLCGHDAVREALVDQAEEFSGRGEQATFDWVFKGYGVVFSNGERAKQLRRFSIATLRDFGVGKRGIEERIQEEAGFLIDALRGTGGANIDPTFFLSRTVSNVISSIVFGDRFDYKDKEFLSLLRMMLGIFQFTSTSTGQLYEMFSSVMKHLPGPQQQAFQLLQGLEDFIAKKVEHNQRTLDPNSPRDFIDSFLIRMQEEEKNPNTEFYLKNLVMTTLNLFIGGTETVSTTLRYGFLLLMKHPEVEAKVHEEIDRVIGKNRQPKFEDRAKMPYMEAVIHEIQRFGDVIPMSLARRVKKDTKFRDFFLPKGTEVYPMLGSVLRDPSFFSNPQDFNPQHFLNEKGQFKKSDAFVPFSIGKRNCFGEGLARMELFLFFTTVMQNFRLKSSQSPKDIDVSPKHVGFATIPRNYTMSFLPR
Source text: (§1) Inhibition assay using cytochrome P450 enzyme CYP2A6 and CYP2A13.

Cytochrome P450 2A13 = biological target: T2, Cytochrome P450 2A13 (Homo sapiens, UniProt Q16696); experiment: Inhibition Assay; settings: pH 7.6; 37 °C
T2 sequence (Q16696 whole entry): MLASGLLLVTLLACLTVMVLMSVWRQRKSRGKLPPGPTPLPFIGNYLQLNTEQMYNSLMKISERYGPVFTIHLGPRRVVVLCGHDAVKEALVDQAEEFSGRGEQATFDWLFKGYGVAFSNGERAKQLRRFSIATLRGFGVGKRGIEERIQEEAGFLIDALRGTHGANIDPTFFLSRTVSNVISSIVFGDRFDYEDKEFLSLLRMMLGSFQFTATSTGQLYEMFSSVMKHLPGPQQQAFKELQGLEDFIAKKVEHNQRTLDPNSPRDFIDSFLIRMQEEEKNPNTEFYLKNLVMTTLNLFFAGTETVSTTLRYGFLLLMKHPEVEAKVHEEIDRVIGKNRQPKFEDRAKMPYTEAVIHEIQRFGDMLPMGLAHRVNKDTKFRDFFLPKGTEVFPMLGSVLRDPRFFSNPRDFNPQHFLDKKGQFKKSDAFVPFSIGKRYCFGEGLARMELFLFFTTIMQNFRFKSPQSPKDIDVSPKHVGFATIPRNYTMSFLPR
Source text: as §1

IC50 (Cytochrome P450 2A6) | IC50 (Cytochrome P450 2A13) [µM] | SMILES
178 µM | 82 | O=C(O)CCCCn1ccnc1
8.6 µM | 44 | CCCCn1ccnc1 [1-Subsituted 1H-imidazole, 2]
2.1 µM | 4.3 | CCCCCn1ccnc1 [1-Subsituted 1H-imidazole, 3]
2.7 µM |  | CCCCCCn1ccnc1 [1-Subsituted 1H-imidazole, 4]
11 µM | 3.1 | CCCCCCCn1ccnc1 [1-Subsituted 1H-imidazole, 5]
1.4 µM | 2.4 | C=CCCCCn1ccnc1 [1-Subsituted 1H-imidazole, 13]
> 300 µM | > 300 | OCCCCn1ccnc1 [1-Subsituted 1H-imidazole, 19]
122 µM | > 300 | OCCCCCn1ccnc1 [1-Subsituted 1H-imidazole, 20]
22.4 µM | 19.1 | N#CCCCCn1ccnc1 [1-Subsituted 1H-imidazole, 22]

Further lines, the compound ahead of its results:

SMILES | IC50 (Cytochrome P450 2A6) | IC50 (Cytochrome P450 2A13) [µM]
c1cn(CC2CC2)cn1 | 54 µM | 148
CCCn1ccnc1 [1-Subsituted 1H-imidazole, 1] | > 300 µM | > 300
CC(C)CCn1ccnc1 [1-Subsituted 1H-imidazole, 7] | 3.1 µM | 
CC(C)=CCn1ccnc1 [1-Subsituted 1H-imidazole, 9] | 7.7 µM | 
CC/C=C/Cn1ccnc1 [1-Subsituted 1H-imidazole, 10] | 6.7 µM | 11.4
CC/C=C/CCn1ccnc1 [1-Subsituted 1H-imidazole, 12] | 7.1 µM and 11.5 µM | 5.5
CC(C)=CCC/C(C)=C\Cn1ccnc1 [1-Subsituted 1H-imidazole, 14] | 5.7 µM | 5.7
CC#CCn1ccnc1 [1-Subsituted 1H-imidazole, 15] | 64 µM | 235
CCOC(=O)CCn1ccnc1 [1-Subsituted 1H-imidazole, 17] | > 300 µM | 238
CCOC(=O)CCCn1ccnc1 [1-Subsituted 1H-imidazole, 18] | > 300 µM | 123
C=Cn1ccnc1 [1-ethenyl-1H-imidazole] | > 300 µM | > 300
CC(C)=CCCC(C)Cc1ncc[nH]1 (centres undefined) [2-Subsituted 1H-imidazole, 26] | > 300 µM | 247
CCCCCCCCCc1ncc[nH]1 [2-Subsituted 1H-imidazole, 27] | > 300 µM | 277
CC/C=C/Cc1ncc[nH]1 [2-Subsituted 1H-imidazole, 28] | > 300 µM | 143
COc1ccc(-c2ncco2)cc1 [2-Subsituted oxazole, 29] | 302 µM | 49
CCCCCCCCCc1ncco1 [2-Subsituted oxazole, 30] | > 300 µM | > 300
COc1ccc(C2=NCCO2)cc1 [2-Subsituted oxazoline, 31] | > 300 µM | > 300

Reference: BindingDB's records for doi:10.1002/cbic.200800712 (University of Basel, 2009)
